# In paper PMC10238656 (Cancer discovery, 2023):
# Several values for one entry are separate records, joined by “and”; a condition that tells them apart may be missing. Identical values can stand only once. Like-named read-outs stand apart in the source and are kept apart here.
# Columns and labels:
# KDM5B = details: cited from earlier work
# [1] = molecular target: full-length recombinant KDM5C (Homo sapiens, UniProt P41229); experiment: KDM5C enzyme kinetic assay; format: biochemical
# TET2 = details: cited from earlier work
# [2] = molecular target: full-length recombinant KDM5A (Homo sapiens, UniProt P29375); experiment: KDM5A enzyme kinetic assay; format: biochemical
# Sequence of full-length recombinant KDM5A (P29375 whole entry): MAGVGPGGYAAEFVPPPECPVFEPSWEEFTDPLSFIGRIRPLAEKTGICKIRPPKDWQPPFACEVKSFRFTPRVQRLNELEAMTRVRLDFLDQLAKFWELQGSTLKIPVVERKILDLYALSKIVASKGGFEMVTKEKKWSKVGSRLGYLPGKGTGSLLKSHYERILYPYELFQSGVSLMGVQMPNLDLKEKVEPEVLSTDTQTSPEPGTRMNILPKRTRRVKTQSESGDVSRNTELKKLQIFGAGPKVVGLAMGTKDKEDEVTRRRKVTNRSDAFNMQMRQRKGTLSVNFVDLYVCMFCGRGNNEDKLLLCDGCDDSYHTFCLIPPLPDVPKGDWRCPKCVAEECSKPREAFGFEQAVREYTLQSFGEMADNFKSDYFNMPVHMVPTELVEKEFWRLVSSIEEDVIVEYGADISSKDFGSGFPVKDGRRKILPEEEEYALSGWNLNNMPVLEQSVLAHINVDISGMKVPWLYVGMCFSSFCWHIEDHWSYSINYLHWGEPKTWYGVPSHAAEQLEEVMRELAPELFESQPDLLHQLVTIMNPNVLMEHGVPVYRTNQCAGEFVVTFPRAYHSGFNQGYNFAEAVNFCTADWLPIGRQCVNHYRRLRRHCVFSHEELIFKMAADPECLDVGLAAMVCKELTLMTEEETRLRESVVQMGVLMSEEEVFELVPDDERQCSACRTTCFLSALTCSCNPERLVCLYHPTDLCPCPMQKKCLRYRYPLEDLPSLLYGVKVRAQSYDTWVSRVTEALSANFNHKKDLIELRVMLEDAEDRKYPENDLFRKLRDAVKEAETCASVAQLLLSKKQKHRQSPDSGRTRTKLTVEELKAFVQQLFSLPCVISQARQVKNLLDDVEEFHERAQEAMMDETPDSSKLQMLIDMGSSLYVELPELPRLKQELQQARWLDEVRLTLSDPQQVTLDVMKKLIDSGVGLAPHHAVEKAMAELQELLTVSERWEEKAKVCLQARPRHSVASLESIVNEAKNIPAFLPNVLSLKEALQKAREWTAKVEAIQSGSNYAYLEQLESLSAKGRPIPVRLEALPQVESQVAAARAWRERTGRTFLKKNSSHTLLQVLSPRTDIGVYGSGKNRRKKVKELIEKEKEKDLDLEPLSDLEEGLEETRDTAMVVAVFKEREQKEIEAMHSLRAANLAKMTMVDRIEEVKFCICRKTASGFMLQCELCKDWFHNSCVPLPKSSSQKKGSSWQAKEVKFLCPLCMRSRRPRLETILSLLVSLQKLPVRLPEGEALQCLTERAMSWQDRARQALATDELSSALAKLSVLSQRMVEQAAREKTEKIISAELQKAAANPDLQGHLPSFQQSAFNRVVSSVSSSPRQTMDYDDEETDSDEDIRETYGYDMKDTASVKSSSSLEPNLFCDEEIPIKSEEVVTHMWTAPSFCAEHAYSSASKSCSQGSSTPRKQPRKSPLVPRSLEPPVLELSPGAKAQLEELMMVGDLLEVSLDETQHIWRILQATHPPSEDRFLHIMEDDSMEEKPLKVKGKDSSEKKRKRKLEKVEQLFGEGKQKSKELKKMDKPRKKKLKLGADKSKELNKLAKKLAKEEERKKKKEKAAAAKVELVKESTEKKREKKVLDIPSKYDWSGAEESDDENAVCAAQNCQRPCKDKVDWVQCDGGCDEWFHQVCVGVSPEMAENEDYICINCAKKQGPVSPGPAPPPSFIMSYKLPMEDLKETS
# [3] = molecular target: full-length recombinant KDM5D (Homo sapiens, UniProt Q9BY66)
# Sequence of full-length recombinant KDM5D (Q9BY66 whole entry): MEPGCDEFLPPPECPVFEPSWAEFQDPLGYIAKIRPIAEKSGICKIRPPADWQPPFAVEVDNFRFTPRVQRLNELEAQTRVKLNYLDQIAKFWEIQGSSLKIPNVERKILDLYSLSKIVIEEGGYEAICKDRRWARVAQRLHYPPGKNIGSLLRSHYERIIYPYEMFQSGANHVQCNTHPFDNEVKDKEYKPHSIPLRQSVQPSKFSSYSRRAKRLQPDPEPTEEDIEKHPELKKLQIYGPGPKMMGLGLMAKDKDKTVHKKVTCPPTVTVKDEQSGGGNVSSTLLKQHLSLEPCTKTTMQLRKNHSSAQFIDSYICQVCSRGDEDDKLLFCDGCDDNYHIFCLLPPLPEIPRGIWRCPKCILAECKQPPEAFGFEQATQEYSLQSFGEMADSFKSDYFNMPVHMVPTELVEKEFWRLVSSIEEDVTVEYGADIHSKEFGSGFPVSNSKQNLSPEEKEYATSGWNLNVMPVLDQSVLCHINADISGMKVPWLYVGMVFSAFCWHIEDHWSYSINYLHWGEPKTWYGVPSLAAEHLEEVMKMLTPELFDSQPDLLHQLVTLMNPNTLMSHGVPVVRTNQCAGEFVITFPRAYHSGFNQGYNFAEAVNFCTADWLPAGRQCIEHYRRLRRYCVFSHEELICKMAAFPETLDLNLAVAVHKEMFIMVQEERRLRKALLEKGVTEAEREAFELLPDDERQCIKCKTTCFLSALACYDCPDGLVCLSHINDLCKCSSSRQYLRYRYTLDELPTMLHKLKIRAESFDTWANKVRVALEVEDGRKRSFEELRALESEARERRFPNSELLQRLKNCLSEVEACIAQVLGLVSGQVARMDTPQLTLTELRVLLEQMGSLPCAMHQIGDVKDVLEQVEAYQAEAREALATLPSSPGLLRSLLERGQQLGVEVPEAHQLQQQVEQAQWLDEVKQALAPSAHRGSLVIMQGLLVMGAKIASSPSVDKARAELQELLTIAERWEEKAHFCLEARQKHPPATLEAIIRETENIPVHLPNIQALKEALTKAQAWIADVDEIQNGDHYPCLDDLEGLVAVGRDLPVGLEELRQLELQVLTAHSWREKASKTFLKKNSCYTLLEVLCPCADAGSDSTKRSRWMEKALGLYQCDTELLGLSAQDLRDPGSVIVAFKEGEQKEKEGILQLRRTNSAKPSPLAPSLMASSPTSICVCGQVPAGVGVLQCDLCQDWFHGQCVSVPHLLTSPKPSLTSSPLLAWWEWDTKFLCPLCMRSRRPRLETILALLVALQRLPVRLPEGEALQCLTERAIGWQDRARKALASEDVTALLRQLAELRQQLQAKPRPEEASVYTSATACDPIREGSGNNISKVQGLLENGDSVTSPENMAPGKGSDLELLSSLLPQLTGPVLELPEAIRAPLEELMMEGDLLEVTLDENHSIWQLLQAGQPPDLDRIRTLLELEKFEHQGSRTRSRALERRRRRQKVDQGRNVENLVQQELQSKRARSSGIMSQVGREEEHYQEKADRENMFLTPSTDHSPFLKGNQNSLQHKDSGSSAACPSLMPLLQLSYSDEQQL
# KDM5A^F68L = KDM5A^F68L (Homo sapiens, UniProt P29375, F68L); format: biochemical
# Sequence of KDM5A^F68L (P29375 whole entry F68L): as the sequence (P29375 whole entry) above, with F68L counted along it
# KDM5A^R429I = KDM5A^R429I (Homo sapiens, UniProt P29375, R429I); format: biochemical
# Sequence of KDM5A^R429I (P29375 whole entry R429I): as the sequence (P29375 whole entry) above, with R429I counted along it
# IHA cells = experiment: Soft agar colony-forming assay; format: cell-based, human; details: 50 nM KDM5c70, IHA cells passaged 7 times in the presence of KDM5c70
# [4] = tested on: trimethyl-H3K4 at sites differentially marked in TF1-IDH1^R132H cells, TF-1 cells; experiment: Trimethyl-H3K4 ChIP-seq; format: cell-based, human; details: KDM5c70-treated TF-1 cells vs DMSO
# TF-1 cells = experiment: TF-1 cytokine-withdrawal assay; format: cell-based, human; details: parental TF-1 cells passaged 21 days in the presence of KDM5c70
# [5] = tested on: global H3K4 trimethylation in TF-1 cells; experiment: Immunoblot analysis of global trimethyl-H3K4; format: cell-based, human; details: 50 nM KDM5c70, 21 days, vs DMSO-treated TF-1 cells
# [6] = tested on: global 5hmC levels in TF-1 cells; experiment: Total 5hmC content by LC-MS; format: cell-based, human; details: 21 days in the presence of KDM5c70, day 0 of cytokine withdrawal
# control TF-1 cells = experiment: Proliferation under cytokine-rich conditions; format: cell-based, human; details: doses up to 100 nM, cytokine-rich media
# TF1-IDH1^R132H cells [7] = experiment: Cytokine-withdrawal assay of mutant IDH-transformed TF-1 cells; format: cell-based, human
# TF1-IDH1^R132H cells [8] = experiment: Proliferation under cytokine-rich conditions; format: cell-based, human; details: doses up to 100 nM, cytokine-rich media
# TF1-shTET2 cells = experiment: Cytokine-withdrawal assay of TET2-knockdown TF-1 cells; format: cell-based, human; details: pre-treatment for two weeks prior to cytokine withdrawal
# [9] = read-out: 2OG Km, mean ± SD of 3 to 7 assays, 50 mM Tris-HCl pH 7.5, 37 °C
# [10] = read-out: (R)-2HG IC50, fourfold 2OG concentration relative to 2OG Km
# [11] = read-out: (S)-2HG IC50, fourfold 2OG concentration relative to 2OG Km
# Sequence of full-length recombinant KDM5C (P41229 whole entry): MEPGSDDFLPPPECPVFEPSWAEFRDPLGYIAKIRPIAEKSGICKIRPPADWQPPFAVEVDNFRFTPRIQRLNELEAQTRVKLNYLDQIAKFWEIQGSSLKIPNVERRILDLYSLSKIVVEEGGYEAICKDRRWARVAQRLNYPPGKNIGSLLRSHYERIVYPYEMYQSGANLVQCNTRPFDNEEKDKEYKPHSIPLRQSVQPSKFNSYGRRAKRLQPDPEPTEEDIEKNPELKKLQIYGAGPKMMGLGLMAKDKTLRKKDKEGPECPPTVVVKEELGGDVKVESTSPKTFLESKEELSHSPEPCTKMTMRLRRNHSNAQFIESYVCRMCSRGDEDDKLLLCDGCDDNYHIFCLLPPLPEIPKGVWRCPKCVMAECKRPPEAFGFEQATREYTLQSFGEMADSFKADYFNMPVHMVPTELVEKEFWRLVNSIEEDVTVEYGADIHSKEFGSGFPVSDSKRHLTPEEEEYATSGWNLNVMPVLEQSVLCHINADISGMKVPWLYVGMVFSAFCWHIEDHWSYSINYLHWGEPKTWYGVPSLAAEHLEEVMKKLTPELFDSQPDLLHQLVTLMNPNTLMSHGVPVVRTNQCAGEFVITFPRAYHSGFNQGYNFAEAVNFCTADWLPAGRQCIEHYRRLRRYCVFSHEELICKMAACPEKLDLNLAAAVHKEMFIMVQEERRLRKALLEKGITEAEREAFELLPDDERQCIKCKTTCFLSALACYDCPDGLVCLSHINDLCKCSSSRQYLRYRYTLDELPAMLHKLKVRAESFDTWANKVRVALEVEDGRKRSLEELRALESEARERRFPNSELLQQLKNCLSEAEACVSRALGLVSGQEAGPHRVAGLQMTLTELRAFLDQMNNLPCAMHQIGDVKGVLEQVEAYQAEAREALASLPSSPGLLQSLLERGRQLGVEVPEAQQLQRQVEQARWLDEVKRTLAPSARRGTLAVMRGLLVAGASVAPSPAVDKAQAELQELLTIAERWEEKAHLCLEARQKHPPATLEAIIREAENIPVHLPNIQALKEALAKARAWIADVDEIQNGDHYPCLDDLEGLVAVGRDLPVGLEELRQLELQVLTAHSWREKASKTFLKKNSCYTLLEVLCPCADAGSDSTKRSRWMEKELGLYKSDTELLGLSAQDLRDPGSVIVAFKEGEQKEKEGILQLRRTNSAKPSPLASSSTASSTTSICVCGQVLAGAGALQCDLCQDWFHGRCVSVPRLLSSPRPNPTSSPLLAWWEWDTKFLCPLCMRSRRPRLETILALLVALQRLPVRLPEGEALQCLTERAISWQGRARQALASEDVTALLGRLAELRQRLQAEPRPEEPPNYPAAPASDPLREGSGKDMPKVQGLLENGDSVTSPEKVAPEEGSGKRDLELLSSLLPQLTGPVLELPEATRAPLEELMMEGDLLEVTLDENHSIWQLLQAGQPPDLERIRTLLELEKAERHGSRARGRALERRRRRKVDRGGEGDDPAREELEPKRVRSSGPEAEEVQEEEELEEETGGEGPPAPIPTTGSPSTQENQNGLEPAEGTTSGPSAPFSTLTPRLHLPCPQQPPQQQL
compound,measurement,setting,value
"O=C(O)CCC(=O)C(=O)O [2OG, 2-oxoglutarate]",Km,KDM5B; read-out: 2OG Km,10 ± 2 µM
same,Km,[1]; [9],2700 ± 400 nM
same,Km,TET2; read-out: 2OG Km,55 ± 20 µM
same,Km,"[2]; read-out: 2OG Km, mean ± SD of 3 to 7 assays, 50 mM MES pH 6.5, 37 °C",4.5 ± 0.3 µM
same,Km,[3]; [9],4.3 ± 1.5 µM
"O=C(O)CC[C@@H](O)C(=O)O [(R)-2HG, (R)-2-hydroxyglutarate]",IC50,KDM5B; read-out: (R)-2HG IC50,[…]
same,IC50,[1]; [10],670 ± 100 µM
same,IC50,TET2; read-out: (R)-2HG IC50,~5 mM and 5 mM
same,sensitivity to inhibition by (R)-2HG compared with wild-type KDM5A,KDM5A^F68L,similarly sensitive to inhibition by (R)-2HG
same,IC50,[2]; [10],930 ± 200 µM
same,sensitivity to inhibition by (R)-2HG compared with wild-type KDM5A,KDM5A^R429I,similarly sensitive to inhibition by (R)-2HG
same,IC50,[3]; [10],800 ± 190 µM
O=C(O)CC[C@H](O)C(=O)O [(S)-2HG],inhibition of KDM5C (in words),[1],potently inhibited
same,IC50,[1]; [11],200 ± 10 µM
same,IC50,TET2; read-out: (S)-2HG IC50,1.6 mM
same,inhibition of KDM5A (in words),[2],potently inhibited
same,IC50,[2]; [11],150 ± 100 µM
same,inhibition of KDM5D (in words),[3],potently inhibited
same,IC50,[3]; [11],310 ± 30 µM
CCOC(=O)c1ccnc(CNCC(=O)N(CC)CCN(C)C)c1 [KDM5c70],soft agar colony formation,IHA cells,sufficient to induce soft agar colony formation
same,trimethyl-H3K4 ChIP-seq signal at sites enriched in TF1-IDH1^R132H cells,[4],trimethyl-H3K4-rich regions were enriched
same,induction of TF-1 cytokine independence,TF-1 cells,sufficient to induce TF-1 cytokine independence
same,effect on global trimethyl-H3K4 levels (western blot),[5],increased global levels of trimethyl-H3K4
same,effect on global 5hmC levels,[6],neither KDM5A/C/D triple knockout nor treatment with KDM5c70 had a significant effect
CC(C)N(C(=O)c1cc(F)ccc1Oc1cncnc1N1CC2(CCN(CC3CCC(NS(C)(=O)=O)CC3)CC2)C1)C(C)C (centres unmarked) [VTP50469],effect on cytokine-dependent proliferation,control TF-1 cells,no effect
same,effect on cytokine independence,TF1-IDH1^R132H cells [7]; pre-treatment for two weeks prior to cytokine withdrawal,did inhibit TF1-IDH1^R132H cytokine independence in a dose-dependent manner
same,effect on cytokine independence,TF1-IDH1^R132H cells [7]; treatment started on day 0 of cytokine withdrawal,no effect
same,effect on cytokine-dependent proliferation,TF1-IDH1^R132H cells [8],no effect
same,effect on cytokine independent proliferation,TF1-shTET2 cells,inhibited the cytokine independent proliferation of TF1-shTET2 cells to a similar extent as TF1-IDH1^R132H cells
